Consider three molecules from US20050107289A1, “Anti-microbial peptides and compositions” (priority 2001, published 2005).

Non-standard residues stand in square brackets, D forms with d. Residues, ends and D or L forms follow the SMILES beside them. Some results are limits rather than exact numbers.

The test system of one series is murine red blood cells. The series can be described thus: Red blood cell hemolysis. In kind it is cell-based, mouse. The procedure, abridged:
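Hemolysis read as A560 of supernatant, scaled between saline (0%) and 1% Triton X-100 (100%) controls; peptides were serially diluted onto 5% murine red cells in saline plus 10% FBS and incubated 30 min at 37° C.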

Series [1] concerns Bacillus cereus ATCC 11778. The format is cell-based. The procedure, abridged:
(§1)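 Broth microdilution (macrodilution in some cases) per NCCLS M7-A4; peptides 2-fold serially diluted in 5% DMSO/9% sucrose, ~400-2 μg/ml before dilution into broth; inoculum ~2.5×10^5 cfu/ml from overnight culture diluted 4000×.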

Series [2] concerns Streptococcus pneumoniae (ATCC 6301). In kind it is cell-based. The procedure, abridged: as §1
Another series concerns E. faecium SP180. The series can be described thus: Time-killing curve, E. faecium SP180. To be noted: for time to kill effectively all bacteria / killing of bacteria: about 2 μg/ml, BHI broth. The format is cell-based, Enterococcus faecium. Here is the method: The speed at which several of the cyclic peptides of the invention kill E. coli JM 109 (DE3), Enterococcus faecium SP 180 and S. aureus (MRSA) (ATCC No. 33591 and 33592) was further tested at room temperature and/or at 37° C. A lower temperature tends to enrich the bacterial cultures for mature bacteria because the bacteria are not growing quickly. […] The presence or absence of immature bacteria in the culture may influence the rate at which the bacteria are killed, because immature bacteria tend to be more susceptible to many forms of antibiotics.
FIGS. 11 and 12 illustrate the time course for killing E. faecium SP 180 with varying concentrations of KSKWLWLW (SEQ ID NO:12), at room temperature and at 37° C. Assays were performed in Brain Heart Infusion broth. As illustrated, somewhat shorter times and/or somewhat lower concentrations of this cyclic peptide are required to kill E. faecium SP180 at 37° C. than at room temperature. E. faecium SP180 is vancomycin resistant (vanA) and multiply resistant to several FDA approved antibiotics. […] This may be due to growth of a few survivors after the residual cyclic peptide within the culture has been exhausted because the amount of peptide employed in that assay was below the MIC value.

In series [3] the test system is vancomycin resistant E. faecium (VREF)(ATCC 51575). The series can be described thus: Mouse peritonitis model, VREF protection. Further details: PD50 VREF: unit not given here. To be noted: for PD50 VREF: Table 12, male Balb-C mice, IP infection, IP peptide; for In Vivo VREF PD50: Table 13; for protection of mice from VREF infection: single bolus IP dose of appropriate amount, 45-60 min after infection. The format is in vivo, mice. The method, then: Vancomycin resistant Enterococcus faecium (VREF) bacteria (ATCC 51575) were grown at 37° C. in 60 mL of Brain Heart Infusion medium (BHI, Difco Laboratories) with agitation for 16 hours to a stationary phase. Cells were collected by centrifugation, washed twice with saline solution and resuspended in 6 mL of saline to a theoretical O.D.650 of 9-10 (determined by taking OD.650 of 10-20 fold diluted samples and correlating it to the original concentration). This suspension was diluted 15 times in a sterilized 5% mucin (Difco) in saline to a concentration of 5-7×10^8 cfu/ml (actual inoculum size was verified by colony counts on agar plates).
Peptides of the invention were tested in mice to ascertain whether they would protect the mice against bacterial infection using procedures similar to those described in N. Frimodt-Moller et al., The Mouse Peritonitis/Sepsis Model, in Zak et al. (eds.) HANDBOOK OF ANIMAL MODELS OF INFECTION 127-37 (Academic Press 1999).
Male Balb-C mice (6 weeks old, approximately 20 g) were used in the study. Staphylococcus aureus MRSA bacteria (ATCC 33591) were grown at 37° C. with agitation for 12 hours to a stationary phase. Cells were collected by centrifugation, washed twice with saline and resuspended to an O.D.650 of 1.4. This suspension was diluted ten times with saline and resuspended to a concentration of 3-5×10^7 cfu/ml. For each peptide five groups of eight mice per group were infected I.P. with 0.5 ml of the above Staphylococcus aureus MRSA preparation (lethal dose). Forty-five minutes to an hour after infection, each group was treated with a different dose of peptide and a control group received vehicle only. Mice were monitored for fourteen days; death was defined as the end point. Median protecting doses (PD50) were calculated following the Reed and Muench method. […] For IV and SQ models peptide was administered immediately after IP infection.

Regarding `CC(C)C[C@H]1NC(=O)[C@H](Cc2c[nH]c3ccccc23)NC(=O)[C@@H](CCCNC(=N)N)NC(=O)[C@H](CCC(N)=O)NC(=O)[C@@H](CCCCN)NC(=O)[C@H](Cc2c[nH]c3ccccc23)NC(=O)[C@@H](CC(C)C)NC(=O)[C@H](Cc2c[nH]c3ccccc23)NC1=O` [SEQ ID NO:8, cyclo-(D-Lys-Gln-D-Arg-Trp-D-Leu-Trp-D-Leu-Trp)] (cyclo([dK]Q[dR]W[dL]W[dL]W)), in the series on murine red blood cells, the HD50 stood at 10 µg/mL, the “In Vitro RBC MIC” value amounted to 40 µg/mL and the “reduction in hemolytic activity” value is “five-fold”. Besides, the “Hemolysis HD50” value with murine red blood cells (red cells of murine) is 45 µg/mL.

`CC(C)C[C@H]1NC(=O)[C@H](Cc2c[nH]c3ccccc23)NC(=O)[C@@H](CCCCN)NC(=O)[C@H](CO)NC(=O)[C@@H](CCCCN)NC(=O)[C@H](Cc2c[nH]c3ccccc23)NC(=O)[C@@H](CC(C)C)NC(=O)[C@H](Cc2c[nH]c3ccccc23)NC1=O` [SEQ ID NO:12, D-Lys-Ser-D-Lys-Trp-D-Leu-Trp-D-Leu-Trp] (cyclo([dK]S[dK]W[dL]W[dL]W)) registered a B. cerius MIC in series [1] of less than 3 µg/mL. For the same molecule, the S. pneum. MIC in series [2] came out at 10 µg/mL. In addition, in the series with E. faecium SP180 (1 μg/ml, 37° C.), the “rebound in bacterial viability” value is on record as “rebound in bacterial viability” and the “time after which effectively no cfu can be detected” value was determined as 2 h. Also, the surviving bacteria result in the series on E. faecium SP180 (1 μg/ml, room temperature) is on record as “viable bacteria can be detected throughout the entire time-course”. The “time to kill effectively all bacteria” value in the series with E. faecium SP180 (37° C.) was “faster than an aliquot can be removed from the test culture”. Moreover, the killing of bacteria entry with E. faecium SP180 (room temperature) is recorded as “discernible numbers of surviving bacteria can be detected immediately”. Further, in the series on murine red blood cells, the “In Vitro RBC MIC” value stood at 100 µg/mL and the “RBC Hemolysis (HD50)” value is recorded as 100. Moreover, in series [3], the “PD50 E. faecium VREF infection” value was found to be 5 mg/kg, the “PD50 VREF” value was determined as 5, the “In Vivo VREF PD50” value stood at 5 mg/kg and the “protection of mice from VREF infection” value is on record as “completely protect”.

The molecule `CC(C)C[C@H]1NC(=O)[C@H](Cc2c[nH]c3ccccc23)NC(=O)[C@@H](CCCCN)NC(=O)[C@H](CCCNC(=N)N)NC(=O)[C@@H](CCCNC(=N)N)NC(=O)[C@H](Cc2c[nH]c3ccccc23)NC(=O)[C@@H](CC(C)C)NC(=O)[C@H](Cc2c[nH]c3ccccc23)NC1=O` [SEQ ID NO:18, cyclo-(D-Arg-Arg-D-Lys-Trp-D-Leu-Trp-D-Leu-Trp)] (cyclo([dR]R[dK]W[dL]W[dL]W)) registered a B. cerius MIC in series [1] of 5 µg/mL. For the same molecule, the S. pneum. MIC in series [2] was determined as 5 µg/mL. Besides, the “time to kill effectively all bacteria” value in the series on E. faecium SP180 (37° C.) is recorded as “within one hour”. Also, the killing of bacteria entry in the series on E. faecium SP180 (room temperature) was “within one hour”. Moreover, in the series with murine red blood cells, the “In Vitro RBC MIC” value is 50 µg/mL and the “RBC Hemolysis (HD50)” value turned out to be 50. In series [3], the “PD50 E. faecium VREF infection” value was determined as 7 mg/kg, the “PD50 VREF” value is reported as 7, the “In Vivo VREF PD50” value is 7 mg/kg and the “protection of mice from VREF infection” value is given as “completely protect”.
